According to paper PMC6751184, “Heme and hemoglobin utilization by Mycobacterium tuberculosis” (Nature Communications, 2019):

Biological target: DppA (Rv3666c), substrate-binding protein of the Dpp transporter (Mycobacterium tuberculosis, UniProt I6X811, W442A)

C=CC1=C(C)C2=Cc3c(C=C)c(C)c4[n]3[Fe]([Cl])[n]3c(c(C)c(CCC(=O)O)c3=CC3=NC(=C4)C(C)=C3CCC(=O)O)=CC1=N2 [hemin]
SPR; binds but dissociates quickly, reduced affinity: Surface plasmon resonance showed that heme bound to the DppAW442A protein but dissociated quickly
